According to US6409508B1, “Use of ozone for the treatment of dental caries” (Natural White, priority 1998, dated 2002):

What was measured:
Type in all cases: cell-based
[1] = tested on: Streptococcus sobrinus; TH 21; test: Ozone on S. sobrinus on saliva coated glass beads; details: 10 seconds of ozone applied to glass beads
Source text: (§1) The aims of these studies were to evaluate the efficiency of ozone on primary root caries and associated micro-organisms (Streptococcus sobrinus; TH 21, Streptococcus mutans; NCTC 10449). In study 1, 40 soft primary root carious lesions (PRCLs) from freshly extracted teeth were used and randomly divided into two groups to test the exposure to ozone for either 10 or 20 seconds. There was a significant (p<0.001) difference (Mean±SE) between the control samples for. either 10 seconds (log10 5.91±0.15) or 20 seconds (log10 6.18±0.21) and ozone treated samples for either 10 seconds (log10 3.57±0.37) or 20 seconds (log10 3.77±0.42). In study 2, 40 sterile saliva coated glass beads were put into bijoux bottles with 3 mls of Todd Hewitt broth for control and test groups. S. sobrinus and S. mutans were inoculated and incubated anaerobically overnight. Each glass bead was washed with 2 mls of PBS. Immediately, 10 seconds of ozone was applied to the glass beads in the test groups. Subsequently, each glass bead in the test and control groups was placed in 3 mls of Todd Hewitt Broth with six more sterile glass beads and were vortexed for 30 seconds. After decimal dilutions, 100 ml aliquots were spread on blood agar plates supplemented with 5% (V/V) horse blood and placed in an anaerobic chamber at 37° C. for two days. The number of each colony type was counted and calculated. […]

[2] = tested on: Streptococcus mutans; NCTC 10449; test: Ozone on S. mutans on saliva coated glass beads; details: 10 seconds of ozone applied to glass beads
Source text: as §1

[3] = tested on: micro-organisms in primary root carious lesions (PRCL); test: Ozone effect on microflora from primary root caries ex-vivo; details: for Mean ± SE of total cfu (Log10): after 10 seconds of ozone treatment
Source text: Primary root carious lesions (PRCL) are a major clinical problem. The aim of this study was to establish if ozone could achieve effective microbial killing in PRCL. An ozone producing generator (Purezone Ltd., Ipswich, U.K.) was used in this ex-vivo study assessing the use of ozone on PRCL. In this study, soft PRCL requiring restoration were used as these are the most severe type of lesion found in humans. 20 freshly extracted teeth with PRCL requiring restoration were used. After plaque removal using a hand held standard fine nylon fibre sterile toothbrush with sterile water as a lubricant to cleanse the surface, each tooth was then isolated using sterile cotton wool rolls and dried using a dry sterile cotton wool roll. […] Each sample was weighed and immediately placed in 1 ml of Fastidious Anaerobe Broth (FAB). To each 1 ml of FAB containing a biopsy of carious or ozone treated carious dentine, sterile glass beads were added. They were vortexed for 30 seconds to facilitate the extraction of any micro-organisms from the carious dentine and disperse any aggregates. After decimal dilution with FAB, […] of these was spread on Fastidious Anaerobe Agar (LabM. Bury, Lancs., U.K.) supplemented with 5% (V/V) horse blood in an anaerobic chamber at 37° C. for four days. The mean±SE number of each colony type was counted and calculated.
The procedure of Example 2 was repeated except that ozonised water was applied to the lesion for 20 seconds.
as §1, with “After decimal dilutions, 100 ml aliquots were spread on blood agar plates supplemented with 5% (V/V) horse blood and placed in an anaerobic chamber at 37° C. for two days.” left out

O=[O+][O-] [Ozone, ozone]
colony count (log10, Mean±SE) [1]: 1.09±0.36 log10 | colony count (log, Mean±SE) [2]: 1.01±0.27 log | percentage of micro-organisms killed ([3]; 10 seconds of ozone treatment): more than 99% | Mean ± SE of total cfu (Log10) ([3]; soft PRCL, freshly extracted teeth): 3.57 ± 0.37 Log10 | Mean ± SE of total cfu (Log10) ([3]; soft PRCL, freshly extracted teeth, listed as ozone): 3.57±0.37 Log10 | Mean ± SE of total cfu (log10) ([3]; after 20 seconds of ozone (ozonised water) treatment, soft PRCL, freshly extracted teeth): 3.77±0.42 log10
